In US11076595B2, “1-(n,n-disubstituted carbamoyl) 4-(substituted sulfonyl)triazolin-5-one derivative, 4-(n,n-disubstituted carbamoyl) 1-(substituted sulfonyl)triazolin-5-one derivative, and herbicide containing said derivative as active ingredient” (HOKKO CHEMICAL INDUSTRY CO., LTD., priority 2017, dated 2021):

What was measured:
Scirpus juncoides [1] = assay: Test Example 1: herbicidal effect test by soil treatment in paddy field; type: in vivo; conditions: 120 g/10a, paddy soil treatment just after sowing, 14 days after treatment
Method in brief: (§1)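 Emulsifiable-concentrate formulation, water-diluted, dosed onto flooded paddy pots at 120 g a.i./10 are directly after sowing. Readout: % suppression by dry weight relative to untreated, 14 d, duplicate plots.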

Lindernia pyxidaria [2] = assay: as above; type: in vivo; conditions: 120 g/10a, paddy soil treatment just after sowing, 14 days after treatment
Method in brief: as §1

Monochoria vaginalis [3] = assay: as above; type: in vivo; conditions: 120 g/10a, paddy soil treatment just after sowing, 14 days after treatment
Method in brief: as §1

Echinochloa crus-galli [4] = assay: as above; type: in vivo; conditions: 120 g/10a, paddy soil treatment just after sowing, 14 days after treatment
Method in brief: as §1

Chenopodium album [5] = assay: Test Example 4: herbicidal effect test by foliage treatment in upland field; type: in vivo; conditions: upland field foliage treatment 7 days after sowing; 120 g/10a; evaluated 14 days after treatment
Method in brief: (§2)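 Application of 120 g active ingredient per 10 are, as a water-diluted emulsifiable concentrate sprayed 7 days after sowing into alluvial soil. Effect is expressed as percent dry-weight reduction versus untreated plots at day 14, duplicate plots.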

Echinochloa crus-galli [6] = assay: as above; type: in vivo; conditions: upland field foliage treatment 7 days after sowing; 120 g/10a; evaluated 14 days after treatment
Method in brief: as §2

Amaranthus viridis [7] = assay: as above; type: in vivo; conditions: upland field foliage treatment 7 days after sowing; 120 g/10a; evaluated 14 days after treatment
Method in brief: as §2

crabgrass [8] = assay: as above; type: in vivo; conditions: upland field foliage treatment 7 days after sowing; 120 g/10a; evaluated 14 days after treatment
Method in brief: as §2

Scirpus juncoides [9] = assay: Test Example 2: herbicidal effect test by treatment during growing period in paddy field; type: in vivo; conditions: treatment 7 days after sowing, 120 g/10a, evaluated 14 days after treatment
Method in brief: (§3)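 Read-out is weed suppression (%), 1 − mean dry weight treated/untreated ×100, taken 14 days after treatment with duplicate plots. Treatment: water-diluted emulsifiable concentrate added dropwise to flooded paddy-soil pots 7 days post-sowing at 120 g active ingredient per 10 are.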

Lindernia pyxidaria [10] = assay: as above; type: in vivo; conditions: treatment 7 days after sowing, 120 g/10a, evaluated 14 days after treatment
Method in brief: as §3

Monochoria vaginalis [11] = assay: as above; type: in vivo; conditions: treatment 7 days after sowing, 120 g/10a, evaluated 14 days after treatment
Method in brief: as §3

Echinochloa crus-galli [12] = assay: as above; type: in vivo; conditions: treatment 7 days after sowing, 120 g/10a, evaluated 14 days after treatment
Method in brief: as §3

Chenopodium album [13] = assay: Test Example 3: herbicidal effect test by soil treatment in upland field; type: in vivo; conditions: upland field soil treatment 1 day after sowing; 120 g/10a; evaluated 14 days after treatment
Method in brief: (§4)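 Pre-emergence soil spray applied one day after sowing 20 seeds of each weed into surface soil, dosed at 120 g a.i. per 10 are in 100 L water per 10 are. After 14 days, plants weighed dry; suppression (%) calculated against untreated plots, duplicate plots per concentration.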

Echinochloa crus-galli [14] = assay: as above; type: in vivo; conditions: upland field soil treatment 1 day after sowing; 120 g/10a; evaluated 14 days after treatment
Method in brief: as §4

Amaranthus viridis [15] = assay: as above; type: in vivo; conditions: upland field soil treatment 1 day after sowing; 120 g/10a; evaluated 14 days after treatment
Method in brief: as §4

crabgrass [16] = assay: as above; type: in vivo; conditions: upland field soil treatment 1 day after sowing; 120 g/10a; evaluated 14 days after treatment
Method in brief: as §4

melting point [°C] | SMILES | weed suppression rate, Scirpus juncoides (Scirpus juncoides [1]) [%] | weed suppression rate, Lindemia pyxidaria (Lindernia pyxidaria [2]) [%] | weed suppression rate, Monochoria vaginalis (Monochoria vaginalis [3]) [%] | weed suppression rate, Echinochloa crus-galli (Echinochloa crus-galli [4]) [%] | herbicidal effect (weed suppression rate), Chenopodium album (Chenopodium album [5]) [%] | herbicidal effect (weed suppression rate), Echinochloa crus-galli (Echinochloa crus-galli [6]) [%] | herbicidal effect (weed suppression rate), Amaranthus viridis (Amaranthus viridis [7]) [%] | herbicidal effect (weed suppression rate), Crabgrass (crabgrass [8]) [%] | weed suppression rate, Scirpus juncoides (Scirpus juncoides [9]) [%] | weed suppression rate, Lindemia pyxidaria (Lindernia pyxidaria [10]) [%] | weed suppression rate, Monochoria vaginalis (Monochoria vaginalis [11]) [%] | weed suppression rate, Echinochloa crus-galli (Echinochloa crus-galli [12]) [%] | herbicidal effect (weed suppression rate), Chenopodium album (Chenopodium album [13]) [%] | herbicidal effect (weed suppression rate), Echinochloa crus-galli (Echinochloa crus-galli [14]) [%] | herbicidal effect (weed suppression rate), Amaranthus viridis (Amaranthus viridis [15]) [%] | herbicidal effect (weed suppression rate), Crabgrass (crabgrass [16]) [%]
81.7 to 85.3 | CCN(CC)C(=O)n1ncn(S(C)(=O)=O)c1=O [Compound 1-1] | – | – | – | – | – | – | – | – | – | – | – | – | – | – | – | –
92 to 94 | CC(C)N(C(=O)n1ncn(S(=O)(=O)C(C)C)c1=O)c1ccccc1 [Compound 1-54] | 90 | 80 | 80 | 90 | 80 | 80 | 90 | 90 | 90 | 80 | 80 | 90 | – | – | – | –
144 to 146 | CC(C)N(C(=O)n1ncn(S(=O)(=O)C2CC2)c1=O)c1ccc(F)cc1F [Compound 1-150, 4-cyclopropylsulfonyl-N-(2,4-difluorophenyl)-N-isopropyl-5-oxo-1,2,4-triazole-1-carboxamide] | 100 | 100 | 100 | 100 | 80 | 80 | 90 | 90 | 90 | 90 | 90 | 100 | 100 | 100 | 90 | 100
102 to 104 | CC(C)N(C(=O)n1ncn(S(=O)(=O)C2CC2)c1=O)c1ccccc1 [Compound 1-168] | 90 | 80 | 80 | 90 | – | – | – | – | 90 | 80 | 80 | 90 | – | – | – | –
115.8 to 118.6 | CCN(CC)C(=O)n1ncn(S(=O)(=O)Cc2ccccc2)c1=O [Compound 1-968] | – | – | – | – | – | – | – | – | – | – | – | – | – | – | – | –
– | CC(C)N(C(=O)n1ncn(S(=O)(=O)N(C)C)c1=O)c1ccc(F)cc1 [Compound 1-1095] | 90 | 80 | 80 | 90 | 80 | 80 | 90 | 90 | 90 | 80 | 80 | 90 | 80 | 80 | 90 | 90
– | CC(C)N(C(=O)n1ncn(S(=O)(=O)N(C)C)c1=O)c1ccc(F)cc1F [Compound 1-1103] | 90 | 80 | 80 | 90 | 80 | 80 | 90 | 90 | 90 | 80 | 80 | 90 | 60 | 100 | 60 | 100
– | Cc1ccc(N(C(=O)n2ncn(S(=O)(=O)N(C)C)c2=O)C(C)C)c(F)c1 [Compound 1-1117] | 90 | 80 | 80 | 90 | 80 | 80 | 90 | 90 | 90 | 80 | 80 | 90 | 80 | 80 | 90 | 90
